{"source": "patent US12150933B2", "about": "“IL-8 inihibitors for use in the treatment of some urological disorders” (DOMPÉ FARMACEUTICI S.P.A., priority 2015, dated 2024)", "key": {"[1]": {"test_system": "CYP-induced visceral pain", "experiment": "Acute administration in CYP-induced visceral pain in rats (Von Frey mechanical threshold)", "type": "in vivo, rat", "description": "Female Sprague Dawley rats (Crl:CD(SD)BR, 250-350 g) from Charles River Italy were used in these experiments. Animals were housed with free access to food and water and maintained on a forced 12 hours light-dark cycle at 22-24° C. for at least one week before the experiments were carried out. The animals were handled according to internationally accepted principles for care of laboratory animals (E.E.C. Council Directive 86/609, […]. 18, 1986). Cyclophosphamide, 75 mg/kg i.p. for 3 times, every 3rd day, was dissolved in distilled water and administered to animals by i.p. route (volume 5 mL/kg). Appropriate weight of Compd. 1 or Compd. 2 was dissolved in saline, all doses of test compounds were administered by oral gavage (volume 2 mL/kg). On the day of the experiment, each rat was placed individually in a clear plastic testing box with a grid floor and allowed to acclimatize for at least 10 min. Visceral sensitivity in response to mechanical stimuli was determined using Von Frey monofilaments (1-2-4-8-15-26-60-100 g) applied in the lower abdominal area (close to the urinary bladder) and on both hind paws plantar surface (to evaluate referred pain). Each Von Frey monofilament was applied 5 times at the level of abdomen and 3 times at the level of each paw, in an ascending order of strength at interval of 5 sec. A stimulus-induced response was considered positive when the paw was sharply withdrawn, paw licking occurred, or the animal flinched upon removal of the filament. Behavioral testing on animals was performed at 3 different times: • before CYP administration (in order to acquire basal values) • after CYP administration, before treatment with the test compound, to verify the pathology (in order to acquire pre-treatment values) • after CYP administration, after treatment (in order to acquire post-treatment values) […] The test was performed in blind. Compd. 1 and Compd. […]"}, "[2]": {"test_system": "CYP-induced visceral pain", "experiment": "Chronic administration in CYP-induced visceral pain in rats (Von Frey withdrawal threshold)", "type": "in vivo, rat", "description": "Cyclophosphamide, 75 mg/kg i.p. for 3 times, every 3rd day, was dissolved in distilled water and administered to animals by i.p. route (volume 5 mL/kg). Appropriate weight of Compd. 1 or Compd. 2 was dissolved in saline, all doses of test compounds were administered by oral gavage (volume 2 mL/kg).\nOn the day of the experiment, each rat was placed individually in a clear plastic testing box with a grid floor and allowed to acclimatize for at least 10 min. Visceral sensitivity in response to mechanical stimuli was determined using Von Frey monofilaments (1-2-4-8-15-26-60-100 g) applied in the lower abdominal area (close to the urinary bladder) and on both hind paws plantar surface (to evaluate referred pain).\nEach Von Frey monofilament was applied 5 times at the level of abdomen and 3 times at the level of each paw, in an ascending order of strength at interval of 5 sec. A stimulus-induced response was considered positive when the paw was sharply withdrawn, paw licking occurred, or the animal flinched upon removal of the filament.\n• before CYP administration (in order to acquire basal values) • after CYP administration and before treatment, to verify the pathology (in order to acquire pre-treatment values) • after chronic treatment, about 18 hours after last administration of Compd. 1 (in order to acquire post-treatment values). • after chronic treatment, 2 hours after the last administration of Compd. 1 (in order to acquire post-treatment values after chronic+acute administration)\nCompd. 1 or vehicle was administered p.o. to animals twice daily (according to the pharmacokinetic profile of the compound) for 6 days, starting from 24 hours after last treatment with CYP, when painful symptoms were well established. Nociceptive hypersensitivity was evaluated about 18 hours after the last administration of Compd. 1 (or vehicle) in order to evaluate the effect of chronic administration, or a further dosage of compound was administered and evaluation carried out 2 hours thereafter, in order to compare with acute protocol, described in Example 1."}, "CYP-induced cystitis [3]": {"test_system": "CYP-induced cystitis", "experiment": "Cystometrographic recordings in conscious rats with CYP-induced cystitis", "type": "in vivo, rat", "settings": "for bladder volume capacity (BVC): 24 hours after CYP 175 mg/kg i.p.", "description": "Female Sprague Dawley rats (Crl:CD(SD)BR, 250-350 g bw) from Charles River Italy were used in these experiments. Animals were housed with free access to food and water and maintained on a forced 12 hours light-dark cycle at 22-24° C. for at least one week before the experiments were carried out.\nRats, anaesthetized with equithensin solution (2 ml/kg i.p.), were placed in a supine position and an approximately 10 mm midline incision was made in the shaved and cleaned abdominal wall. The urinary bladder was gently freed from adhering tissues, emptied and then cannulated, via an incision at the dome, with a polyethylene cannula (Portex, ID 0.58 mm, OD 0.96 mm), which was permanently sutured with silk thread. The cannula was exteriorized through a subcutaneous tunnel in the retroscapular area, where it was connected with a plastic adapter, in order to avoid the risk of removal by the animal.\nFor drugs testing, rats were utilized one day after catheter implantation at about 24 hours after administrations CYP.\nOn the day of the experiment, the rats (fasted overnight) were placed in Bollman's cages; after a stabilization period of 20 min, the free tip of the cannula was connected by a T-shape tube to a pressure transducer and to a peristaltic pump for a continuous infusion of saline solution (room temperature) into the urinary bladder, at the constant rate of 0.05 ml/min. This procedure, termed cystometry, allows the detection of continuous cycles of filling and voiding of the bladder named cystometrograms.\nFrom the cystometrograms acquired by the Biopac System and recorded on a PC the Bladder Volume Capacity (BVC) parameter was calculated as volume capacity, defined as volume (in ml) infused into the bladder and necessary to induce detrusor contraction followed micturition.\nBasal BVC was evaluated as mean values from the cystometrograms recorded in 30-60 minutes of time prior the treatment (“BASAL”). Then the bladder infusion was stopped, the animals were treated orally with the test compound or vehicle and, after restarting continuous bladder filling with saline for 4 or 5 hours, BVC values after administration were collected.\nBVC parameters were recorded from the cystometrogram over a 4/5 hours period post-dose."}, "CYP-induced cystitis [4]": {"test_system": "CYP-induced cystitis", "experiment": "Microscopic examination of urinary bladders after chronic preventive administration", "type": "in vivo, rat", "settings": "12 hours before and twice per day from first day of CYP for 7 days", "description": "At the end of the study, the urinary bladders were opened, placed in 10% buffered formalin and stored at room temperature until completion of hystomorphological analysis (see Example 6 below).\nAt the end of the efficacy study of chronic preventive administration, the urinary bladders were opened, placed in 10% buffered formalin and stored at room temperature until hystomorphological analysis.\nTreatment with Compd. […] 1."}, "[5]": {"experiment": "Pharmacokinetic profile after oral administration", "type": "in vivo"}, "[6]": {"settings": "7 mg/kg twice daily p.o. for 6 days, about 18 hours after last administration"}}, "note": "Entries after “also recorded” stand apart in the source; their conditions may differ."}
{"molecule": "C[C@H](C(=O)O)c1ccc(Nc2nc(C(F)(F)F)cs2)cc1", "note": "[Compd. 1, (2S)-2-(4-{[4-(trifluoromethyl)-1,3-thiazol-2-yl]amino}phenyl) propanoic acid]", "values": [{"measurement": "withdrawal thresholds, abdomen and hind paws", "setting": "[1]; 1 mg/kg p.o., 2 hours after administration, versus pre-treatment", "value": "not significantly different from the pretreatment values"}, {"measurement": "mechanical threshold, abdomen and hind paws", "setting": "[1]; 3 mg/kg p.o., 2 hours after administration, versus pre-treatment", "value": "statistical significant increase of mechanical threshold in both the areas evaluated"}, {"measurement": "mechanical threshold, abdomen and hind paws", "setting": "[1]; 7 mg/kg p.o., 2 hours after administration, versus pre-treatment", "value": "statistical significant reduction of painful hypersensitivity in both the abdominal and plantar surface"}, {"measurement": "mechanical threshold, abdomen and hind paws", "setting": "[1]; 10 mg/kg p.o., 2 hours after administration, versus pre-treatment", "value": "statistically significant increase in mechanical threshold in both the abdomen and paws area; also recorded: statistical significant reduction of painful hypersensitivity in both the abdominal and plantar surface"}, {"measurement": "mechanical threshold, abdomen and hind paws", "setting": "[1]; 30 mg/kg p.o., 2 hours after administration, versus pre-treatment", "value": "statistically significant increase in mechanical threshold in both the abdomen and paws area"}, {"measurement": "MED", "setting": "[1]; p.o., acute administration", "value": 3, "unit": "mg/kg"}, {"measurement": "painful visceral symptoms in both evaluated areas", "setting": "[2]; 7 mg/kg twice daily p.o. for 6 days plus one further dose, 2 hours following the last administration", "value": "fully abolished the painful visceral symptoms in both evaluated areas"}, {"measurement": "nociceptive hypersensitivity in hind-paws plantar surface", "setting": "[2]; [6]", "value": "completely reverses the nociceptive hypersensitivity in hind-paws plantar surface"}, {"measurement": "withdrawal thresholds in the abdomen", "setting": "[2]; [6]", "value": "almost complete recovery of withdrawal thresholds in the abdomen; also recorded: almost complete increase in withdrawal thresholds in the abdomen"}, {"measurement": "bladder volume capacity (BVC)", "setting": "CYP-induced cystitis [3]; 10 mg/kg oral", "value": "did not induce any changes of BVC"}, {"measurement": "bladder volume capacity (BVC)", "setting": "CYP-induced cystitis [3]; 20 mg/kg oral", "value": "moderate increase of BVC statistically different from vehicle and pre-drug treatment at 4 and 5 hours"}, {"measurement": "bladder volume capacity (BVC)", "setting": "CYP-induced cystitis [3]; 30 mg/kg oral", "value": "sustained increase of BVC"}, {"measurement": "increase of BVC", "setting": "CYP-induced cystitis [3]; 30 mg/kg oral, significant at 3 and 4 hours after treatment", "value": "up to +40%"}, {"measurement": "MP", "setting": "CYP-induced cystitis [3]; 20 and 30 mg/kg oral", "value": "inactive on MP"}, {"measurement": "inflammatory, degenerative, proliferative and hemorrhagic lesions caused by CYP", "setting": "CYP-induced cystitis [4]", "value": "clearly reduced the inflammatory, degenerative, proliferative and hemorrhagic lesions caused by CYP"}, {"measurement": "distribution in the tissues", "setting": "[5]; in vivo", "value": "poorly distributed in the tissues"}, {"measurement": "elimination from plasma", "setting": "[5]; in vivo", "value": "gradually eliminated from plasma"}, {"measurement": "oral bioavailability", "setting": "[5]; in vivo, po", "value": "excellent oral bioavailability"}, {"measurement": "absorption", "setting": "[5]; oral route", "value": "rapid absorption; also recorded: well absorbed by the oral route"}, {"measurement": "time of maximum concentration in plasma after administration", "setting": "[5]; plasma", "value": 2, "unit": "h"}, {"measurement": "Cmax", "setting": "[5]; plasma, oral, read-out: maximum concentration (Cmax) in plasma", "value": "47400 ± 25400", "unit": "ng/mL"}]}
